Test results: US20150374660A1, “Ascorbate Esters of Omega-3 Fatty Acids and Their Formulations and Uses” (JIVA PHARMA, INC., priority 2013, published 2015)

Key:
[1] = test system: cultured primary human myocytes; assay: fatty acid oxidation rates in cultured primary human myocytes (radiolabeled CO2 release); format: cell-based; settings: 48 hr, n=6; for differences from control in fatty acid oxidation: ethanol control, 30, 100 and 300 micromolar; for promotion of fatty acid oxidation (complete oxidation, CO2): normal primary human myocytes, 30, 100 and 300 micromolar, radiolabeled oleic acid, compared to EPAEE
Text: FIG. 1 is a graph of the data obtained from biology tests described herein of EPA and DHA ascorbates on fatty acid oxidation rates in cultured on normal primary human myocytes. The vertical axis is the complete oxidation (nmol CO2/mg protein). The statistical variance is shown by the “T” at the top of each bar. The #1 bar (solid coral) is the ethanol as control; #2 bars (solid gray, from left to right are 30, 100 and 300 micromolar) of EPA; #3 bars (solid green, from left to right are 30, 100 and 300 micromolar) of EPAX; #4 bars (hash red and white, from left to right are 30, 100 and 300 micromolar) of DHAX; and #5 bars (solid red, from left to right are 30, 100 and 300 micromolar) of EPAEE.
Effect of EPA and DHA ascorbates on fatty acid oxidation rates in cultured primary human myocytes were determined and discussed below.
Cell-based multiwell assays for the detection of substrate accumulation and oxidation are described in literature (A. J. Wensaas, et al., J. of Lipid Research 48, 961-967 (2007)) for detecting the accumulation as well as the subsequent oxidation of ^14C labeled substrates in cultured cells. Accumulation is monitored in real time by an established scintillation proximity assay in which the scintillator is embedded in the plate base primarily detecting cell-associated radiolabel. This method was applied, and the effect of EPA and DHA ascorbates on fatty acid oxidation rates in cultured primary human myocytes was determined The compounds tested were EPA, EPAX (EPAX), DHAX (DHAX), and EPAEE.
Cultured human primary myocytes from normal (non-diabetic, non-obese) subjects
Cells treated with 30, 100 and 300 micromolar of each compound for 48 hr
Cells grown in the presence of radiolabeled oleic acid
Radiolabeled CO2 released during the incubation was measured.
Each compound was tested 6 times (n=6)

[2] = cited from earlier work

Structure (SMILES)	differences from control in fatty acid oxidation [1]	promotion of fatty acid oxidation (complete oxidation, CO2) [1]	solubility in aqueous ethanol ([2]; aqueous ethanol)	solubility in water ([2]; water)
CC/C=C\C/C=C\C/C=C\C/C=C\C/C=C\C/C=C\CCC(=O)OC[C@H](O)[C@H]1OC(=O)C(O)=C1O [DHA ascorbate]	not statistically significant	to a lesser degree	–	–
CC/C=C\C/C=C\C/C=C\C/C=C\C/C=C\CCCC(=O)OC[C@H](O)[C@H]1OC(=O)C(O)=C1O [EPA ascorbate]	not statistically significant	distinct trend	–	–
CCCCCCCCCCCCCCCC(=O)OC[C@H](O)[C@H]1OC(=O)C(O)=C1O [Palmitoyl ascorbate, 6-O-palmitoyl L-ascorbate]	–	–	soluble	sparingly soluble
